Earlier results on five molecules are cited in patent EP0387265B1, “USE OF 5-AMINOSALICYCLIC ACID (5-ASA) FOR THE PRODUCTION OF A PHARMACEUTICAL PREPARATION FOR USE IN REPERFUSION TREATMENT” (priority 1987, dated 1989).

For orientation: half-life means how long it takes for the measured level to halve.

Where two headings read alike, the source gives them in different places.

Data set [1] has as its system reperfusion ischemic injury in the gastric mucosa. Conditions: rats.
For data set [2] the following is noted: rats.
The conditions of data set [3]: 100 or 250 mg intravenously, 6 normal test humans.
For data set [4] the following is noted: in vivo.
The conditions of data set [5]: humans, moderate doses.
For data set [6] the following is noted: capable of neutralizing the toxic properties of the free radicals of oxygen; 'in contrast to' means not a radical scavenger.
The conditions of data set [7]: 250 mg intravenously, humans having normal coagulation.
For data set [8], the system named is acute myocardial ischemia and reperfusion injuries. The settings on record: dogs; MPG together with neutrophilic antiserum; compared to a control group which received non-immune serum.
A further data set relates to colitis ulcerosa. Conditions: in vivo.

Regarding `Nc1ccc(O)c(C(=O)O)c1` [5-ASA, 5-aminosalicylic acid], in [1], the “protection against reperfusion ischemic injury in the gastric mucosa” value is “offers protection”. The nephrotoxic effect result in data set [2] is listed as “nephrotoxic effect has been demonstrated”. Further, in data set [3], the distribution volume is 0.4 L/kg and the half-life is 35 min. Also, the side effects entry in data set [4] was “No side effects have been observed which can be related to the substance with certainty”. Also, the nephrotoxic effect entry in [5] was “does not have any noticeable nephrotoxic effect”. Further, the radical scavenger entry in data set [6] was “is a radical scavenger”. In addition, in data set [7], the effect of fibrinolysis result is “has not been found to result in any effect” and the “effect of the thrombocyte function” value is “has not been found to result in any effect”.

For `CC(S)C(=O)NCC(=O)O` (stereo not shown) [MPG, N-2-mercaptopropionyl glycine], the “reduced the infarct size” value in [8] was 63%.

For `Nc1ccc(S(=O)(=O)Nc2ccccn2)cc1` [sulfapyridine], in [1], the “protection against reperfusion ischemic injury in the gastric mucosa” value was “not”.

With `CC(=O)Oc1ccccc1C(=O)O` [acetylsalicylic acid], in the data set on colitis ulcerosa, the “effect against colitis ulcerosa” value is recorded as “no effect”.

For `O=C([O-])c1ccccc1O.[Na+]` [sodium salicylate], the “effect against colitis ulcerosa” value with colitis ulcerosa is recorded as “no effect”.
